“And” between values parts separate entries of the source, which are not always exact repeats. Equal entries are not always repeated. Structures can show the parent of a compound that is named as a salt. Where two headings read alike, the source gives them in different places.
Experiments:
[1] = for μmols retained in oropharyngeal cavity (A × 0.24): 12.5 ml administered; for Optimum L-Epinephrine Topical Dose (μmols/cm^2): 12.5 ml, surface area 188 cm^2
Description: In these experiments, three human volunteer subjects were provided vials containing solution of 5 mM phenylephrine HCl dissolved in our orotopical delivery vehicle, and they were instructed to: • i) deliver the vial contents into their mouths; • ii) ii) swish the liquid in their mouths, pausing to gargle twice for five seconds; and • iii) at the specified time spit out the liquid into a glass vial.
The volume administered and the volume spit out by each test subject were recorded, and HPLC analysis of the phenylephrine concentration in the administered solution and the solutions spit out by each of the three volunteer subjects were determined.

[2] = system: mucositis, dermatitis and alopecia; settings: topically applied, animal models; cited from earlier work
cancerous tissues = settings: topical application, three xenograft tumour mice models; cited from earlier work
radiation dermatitis = settings: cited from earlier work; for relative potencies of the topically applied vasoconstrictors (suppression of radiation dermatitis): 75 μl in ethanol:water (70:30) on 4.5 cm^2 shaved skin 12 min before 17.2 Gy; for potency in comparison to epinephrine: Fahl, 2016
[3] = HCl titration of L-epinephrine free base in orotopical delivery vehicle: pH and appearance; assay type: physicochemical
Description: 18 hours later, the clear solution had developed a pink colour (consistent with adrenochrome formation, an oxidative epinephrine metabolite) and flocculant, re-precipitated material had appeared on the surface of the liquid.
An abrupt drop in pH occurred at pH 6.10 in which the turbidity also immediately clarified. Table 2 provides a summary of the pH values from this titration, and indicates the experimentally determined moles of HCl that were required to achieve pH 2.50 in this specific formulation

submucosal blood vessels = system: submucosal blood vessels
Description: 2. While stirring, 2-5 N HCl was added to achieve a pH of 2.5.
3. […] The subject swished the 12.5 ml of formulation, gargling twice for 5 seconds each, for 2.0 minutes, and then spit out the formulation.

oral mucosa tissue = experiment: Lip blanch response after topical application of 1.0 ml to lips (Example 1); assay type: in vivo, human
squamous human skin = settings: 3 mg/ml
[4] = Stability of pharmaceutical composition with around 20% wt/vol oxygen (Example 9); assay type: physicochemical; settings: 5 mM (0.92 mg/ml)
Description: The stability study samples were stored at the stability incubator chambers with various temperature and humidity conditions. At indicated time points, pulled samples were assessed on items such as Appearance, Identification, Colour of solution, Clarity of solutions, pH, Assay, Related Substances, Ethanol and Sodium Metabisulfite content for L-epinephrine solution.

[5] = Nutman et al., Crit Care Med 1994; cited from earlier work
[6] = 5 mM × 12.5 ml administered, one line per subject, HCl

CNC[C@H](O)c1cccc(O)c1 [PhE-HCl, phenylephrine HCl]
Spit Out PhE-HCl mg/ml (hplc) × ml B ([1]; 5 mM × 12.5 ml (12.8 mg) administered, one line per subject, mean in brackets, HCl): (10.59) mg/ml × ml and 9.23, 9.62 (9.42) mg/ml × ml and 8.91, 9.51 (9.21) mg/ml × ml
% of Administered Dose Spit Out B/A × 100 [1, 6]: 74% and 72% and 83%
% of Orotopical PhE-HCl Dose Delivered to Oral Surfaces [1, 6]: 26% and 28% and 17%
mg PhE-HCl Actually Delivered [1, 6]: 3.3 mg and 3.6 mg and 2.2 mg

NC[C@H](O)c1ccc(O)c(O)c1 [norepinephrine]
prevention of mucositis, dermatitis and alopecia induced by radiation [2]: successful outcome
interference to the curative radiation effect to cancerous tissues (cancerous tissues): no interference
relative potencies of the topically applied vasoconstrictors (suppression of radiation dermatitis) (radiation dermatitis): 0.5
potency in comparison to epinephrine (radiation dermatitis): half

CNC[C@H](O)c1ccc(O)c(O)c1 [L-epinephrine]
appearance of solution ([3]; at pH 2.50): clear and colourless
appearance of solution ([3]; at pH 4.95): clear and colourless
appearance of solution ([3]; pH 2.50 solution, 48 hrs later): clear and colourless
appearance of solution ([3]; pH 4.95 solution, 18 hours later): pink colour
lip blanching (photos) (submucosal blood vessels; 5.5 mg/ml solution on the lower lip): blanching
lip blanch response (submucosal blood vessels; 5 minutes after initiation of gargling, 12.5 ml, pH 2.5): clear, robust blanch response
time within which robust mucosal blanch was induced (submucosal blood vessels; four healthy volunteers, 0.9-5.5 mg/ml): 5 to 60 min
time to see a robust lip blanch response (oral mucosa tissue; solution at pH 2.50, 20 mM, 1.0 ml on lips): 8 min
time to see a discernible lip blanch response (oral mucosa tissue; solution at pH 4.95, 1.0 ml on lips): ~20 min
2N HCl added to adjust to pH 2.33 (ml/l) (L-epi conc 0.92 mg/ml): 5.36 ml/l
pH without addition of L-epi (L-epi conc 0.92 mg/ml): 4.32
2N HCl added to adjust to pH 2.33 (ml/l) (L-epi conc 5.50 mg/ml): 11.88 ml/l
pH without addition of L-epi (L-epi conc 5.50 mg/ml): 7.10
duration of blanching after dermal topical application (squamous human skin): about 40 minutes
single impurity ([4]; 40° C. for 1 month): ~1.7%
total impurities ([4]; 40° C. for 1 month): 3.8%
concentration of antioxidant sodium metabisulfite ([4]; 60° C. and 40° C.): decreasing trend
decrease of concentration of L-epinephrine ([4]; 60° C. stress condition): about 18%
sample colour ([4]; 60° C. stress condition): light brown
single impurity ([4]; 60° C. stress condition): more than 8%
total impurities ([4]; 60° C. stress condition): more than 17%
share of L-epinephrine dose from the orotopical solution delivered to oral mucosa ([1]; 1.8 mg/ml or 3.6 mg/ml administered to mouths of adult humans): 20-30%
μmols retained in oropharyngeal cavity (A × 0.24) ([1]; 10 mM (1.8 mg/ml)): 30 μmols
Optimum L-Epinephrine Topical Dose (μmols/cm^2) ([1]; 10 mM (1.8 mg/ml)): 0.160 μmols/cm^2
μmols retained in oropharyngeal cavity (A × 0.24) ([1]; 20 mM (3.6 mg/ml)): 60 μmols
Optimum L-Epinephrine Topical Dose (μmols/cm^2) ([1]; 20 mM (3.6 mg/ml)): 0.320 μmols/cm^2
potency versus racemic +/−epinephrine HCl [5]: twice as potent

CNC[C@H](O)c1cccc(O)c1 [phenylephrine]
prevention of mucositis, dermatitis and alopecia induced by radiation [2]: successful outcome
interference to the curative radiation effect to cancerous tissues (cancerous tissues): no interference
relative potencies of the topically applied vasoconstrictors (suppression of radiation dermatitis) (radiation dermatitis): 0.2
potency in comparison to epinephrine (radiation dermatitis): one fifth

CNC[C@H](O)c1ccc(O)c(O)c1 [epinephrine]
prevention of mucositis, dermatitis and alopecia induced by radiation [2]: successful outcome
interference to the curative radiation effect to cancerous tissues (cancerous tissues): no interference
relative potencies of the topically applied vasoconstrictors (suppression of radiation dermatitis) (radiation dermatitis): 1

Source: patent publication US20250152524A1, “TOPICAL COMPOSITIONS AND METHODS” (VasoDynamics Limited, priority 2022, published 2025)
